Values joined by “and” are separate entries in the source; they are usually repeats but may differ in a detail not shown here. Equal entries are not always repeated. Where two headings read alike, the source gives them in different places.
Test: Pharmacokinetics after single oral dose in rats
Type: in vivo, Wistar rat
Experimental: 300 μL blood collected from the rat was mixed with 30 μL methanol and 2 mL ethyl acetate. The samples were vortexed for 3 min and centrifuged at 4000 rpm for 15 min. The supernatant was introduced into another centrifugal tube. The lower layer was repeatedly extracted and then the supernatants were combined and dried with nitrogen gas. After redissolution with 150 μL methanol, they were filtered by 0.22 μm membrane and then subjected to analysis with a injection volume of 20 μL.
An amount of compound was taken accurately to prepare CMC-Na aqueous solution containing 3 mg/mL of drug. 12 healthy male Wister rats were randomly assigned to two groups, each group including 6 rats. The first group was administrated orally compound 1. The second group was administrated orally compound 2. The doses were both 30 mg/kg (corresponding to 2 mL for each rat). The rats were fasting for 12 h before administration and free access to water. 0.6 mL blood samples were collected at 0.5, 1, 1.5, 2, 2.5, 3, 5, 8, 12 and 24 h after drug administration from the venous sinuses and added into EP tubes which were rinsed with heparin sodium previously. The samples were centrifuged at 4,000 r/min for 15 min and the upper plasma were obtained. 300 μL plasma was subjected to analysis and the chromatogram and peak area were recorded. The plasma concentrations of compounds 1 and 2 were calculated to give average concentration-time curve.
DAS 2.0 program was used to analyze plasma concentration vs. time data after s single oral dose (Table 6, 7). Fitting and the AIC methods were used to determine the model. The analysis was based on the principle that the larger fitting and the smaller AIC, the better model. The oral administration was consistent with the two-compartment model. The statistical distance parameter is used to compare the 2 compounds for the pharmacokinetic parameters.

[1] = male, Wistar, plasma, rat, oral 30 mg/kg

O=C(Nc1ccc(CN2CCOCC2)cc1)c1n[nH]cc1Nc1ncnc2sccc12 [Compound I-2, 4-(4-thieno[2,3-d]pyrimidinylamino)-N-(4-((4-morpholinyl)methyl)phenyl)-1H-3-pyrazolecarboxamide]
Cmax [1]: 265 ± 52.9 ng/mL
Tmax [1]: 14 ± 5.29 h
half-life [1]: 14.7 ± 4.23 h
AUC(0-t) (male, Wistar, plasma, rat, oral 30 mg/kg, read-out: AUC 0-24): 4350 ± 1300 ng·h/mL
MRT last (male, Wistar, plasma, rat, oral 30 mg/kg, read-out: MRT 0-24): 13.8 ± 1.29 h
concentration at 0.5 h (male, Wistar, rat, plasma, po, 30 mg/kg, mean of rats, oral 30 mg/kg, time 0.5 h, read-out: Plasma concentration, mean): 50.8 ng/mL
concentration at 1 h (male, Wistar, rat, plasma, po, 30 mg/kg, mean of rats, oral 30 mg/kg, time 1 h, read-out: Plasma concentration, mean): 85.3 ng/mL
concentration at 2 h (male, Wistar, rat, plasma, po, 30 mg/kg, mean of rats, oral 30 mg/kg, time 2 h, read-out: Plasma concentration, mean): 53.2 ng/mL
concentration at 2.5 h (male, Wistar, rat, plasma, po, 30 mg/kg, mean of rats, oral 30 mg/kg, time 2.5 h, read-out: Plasma concentration, mean): 57.6 ng/mL
concentration at 3 h (male, Wistar, rat, plasma, po, 30 mg/kg, mean of rats, oral 30 mg/kg, time 3 h): 64.5 ng/mL
concentration at 5 h (male, Wistar, rat, plasma, po, 30 mg/kg, mean of rats, oral 30 mg/kg, time 5 h): 122 ng/mL
concentration at 8 h (male, Wistar, rat, plasma, po, 30 mg/kg, mean of rats, oral 30 mg/kg, time 8 h, read-out: Plasma concentration, mean): 162 ng/mL
concentration at 12 h (male, Wistar, rat, plasma, po, 30 mg/kg, mean of rats, oral 30 mg/kg, time 12 h, read-out: Plasma concentration, mean): 264 ng/mL
concentration at 24 h (male, Wistar, rat, plasma, po, 30 mg/kg, mean of rats, oral 30 mg/kg, time 24 h): 157 ng/mL
concentration at 2.5 h (male, Wistar, rat, plasma, po, 30 mg/kg, rat No. 1-6, oral 30 mg/kg, time 2.5 h, read-out: Plasma concentration, individual rats): 72.9 ng/mL
concentration at 12 h (male, Wistar, rat, plasma, po, 30 mg/kg, rat No. 1-6, oral 30 mg/kg, time 12 h, read-out: Plasma concentration, individual rats): 253 ng/mL
Plasma concentration, individual rats (rat No. 1-6, oral 30 mg/kg, time 0.5 h, 30 mg/kg): 29.26 ng*ml/1 and 123.49 ng*ml/1 and 25.98 ng*ml/1 and 24.36 ng*ml/1
Plasma concentration, individual rats (rat No. 1-6, oral 30 mg/kg, time 1 h, 30 mg/kg): 208.71 ng*ml/1 and 28.68 ng*ml/1 and 18.66 ng*ml/1
Plasma concentration, individual rats (rat No. 1-6, oral 30 mg/kg, time 2 h, 30 mg/kg): 53.04 ng*ml/1 and 88.44 ng*ml/1 and 37.16 ng*ml/1 and 47.57 ng*ml/1 and 47.03 ng*ml/1 and 46.08 ng*ml/1
Plasma concentration, individual rats (rat No. 1-6, oral 30 mg/kg, time 2.5 h, 30 mg/kg): 74.79 ng*ml/1 and 57.6 ng*ml/1 and 39.48 ng*ml/1 and 49.89 ng*ml/1 and 51.04 ng*ml/1
Plasma concentration, individual rats (rat No. 1-6, oral 30 mg/kg, time 3 h, 30 mg/kg): 81.11 ng*ml/1 and 87.89 ng*ml/1 and 57.21 ng*ml/1 and 41.79 ng*ml/1 and 65.08 ng*ml/1 and 53.93 ng*ml/1
Plasma concentration, individual rats (rat No. 1-6, oral 30 mg/kg, time 5 h, 30 mg/kg): 124.06 ng*ml/1 and 272.93 ng*ml/1 and 86.12 ng*ml/1 and 78.03 ng*ml/1 and 94.32 ng*ml/1 and 76.64 ng*ml/1
Plasma concentration, individual rats (rat No. 1-6, oral 30 mg/kg, time 8 h, 30 mg/kg): 196.61 ng*ml/1 and 263.95 ng*ml/1 and 119.66 ng*ml/1 and 82.66 ng*ml/1 and 121.59 ng*ml/1 and 186.27 ng*ml/1
Plasma concentration, individual rats (rat No. 1-6, oral 30 mg/kg, time 12 h, 30 mg/kg): 345.56 ng*ml/1 and 229.22 ng*ml/1 and 256.32 ng*ml/1 and 213.94 ng*ml/1 and 286.97 ng*ml/1
Plasma concentration, individual rats (rat No. 1-6, oral 30 mg/kg, time 24 h, 30 mg/kg): 198.92 ng*ml/1 and 97.83 ng*ml/1 and 209.56 ng*ml/1 and 221.75 ng*ml/1 and 74.79 ng*ml/1 and 138.91 ng*ml/1
pharmacokinetic parameters (in words) (rat, oral 30 mg/kg): acceptable
